Data reported in patent US9353090B2, “Heterocyclic carboxylic acids as activators of soluble guanylate cyclase” (Boehringer Ingelheim International GmbH, priority 2014, dated 2016).
≈ marks a conversion by molar mass, not a printed value.

Assays:
[1] = target: human soluble guanylate cyclase alpha 1 and beta 1 subunits (sGC) (Homo sapiens (Human), UniProt Q02108+Q02153); assay: sGC cellular activator assay (cGMP, HTRF), in the presence and absence of 50% human serum; type: cell-based; conditions: CHO cells stably expressing human sGC alpha 1/beta 1, preincubated with 40 microM ODQ; cGMP by HTRF; Table 2 does not state whether with or without 50% human serum
In short: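 First, CHO-sGC (human α1β1) cells get 1 h ODQ at 40 microM with IBMX and 0.1% BSA. Finally, cGMP is quantified by HTRF and EC50 computed.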

[2] = Human liver microsome (HLM) metabolic stability assay; type: in vitro ADME; conditions: human liver microsomes
In short: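 Remaining parent measured by LC/MS/MS (ESI, MRM) at 5, 15, 30 and 60 min relative to 0 min. Incubation: 1 uM compound, HLMs, NADPH-started, 37° C., 60 min total, single replicate. Slope of ln(% remaining) gives t1/2 = 0.693/slope, then CLint, CLh and % Qh.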

physchem = conditions: kinetic from dmso stock
[3] = pH 2.2, aqueous buffer, Solubility (pH 2.2)
[4] = pH 4.5, aqueous buffer, Solubility (pH 4.5)
[5] = pH 6.8, aqueous buffer, Solubility (pH 6.8)

Chain of human soluble guanylate cyclase alpha 1 and beta 1 subunits (sGC) (Q02108 whole entry partner): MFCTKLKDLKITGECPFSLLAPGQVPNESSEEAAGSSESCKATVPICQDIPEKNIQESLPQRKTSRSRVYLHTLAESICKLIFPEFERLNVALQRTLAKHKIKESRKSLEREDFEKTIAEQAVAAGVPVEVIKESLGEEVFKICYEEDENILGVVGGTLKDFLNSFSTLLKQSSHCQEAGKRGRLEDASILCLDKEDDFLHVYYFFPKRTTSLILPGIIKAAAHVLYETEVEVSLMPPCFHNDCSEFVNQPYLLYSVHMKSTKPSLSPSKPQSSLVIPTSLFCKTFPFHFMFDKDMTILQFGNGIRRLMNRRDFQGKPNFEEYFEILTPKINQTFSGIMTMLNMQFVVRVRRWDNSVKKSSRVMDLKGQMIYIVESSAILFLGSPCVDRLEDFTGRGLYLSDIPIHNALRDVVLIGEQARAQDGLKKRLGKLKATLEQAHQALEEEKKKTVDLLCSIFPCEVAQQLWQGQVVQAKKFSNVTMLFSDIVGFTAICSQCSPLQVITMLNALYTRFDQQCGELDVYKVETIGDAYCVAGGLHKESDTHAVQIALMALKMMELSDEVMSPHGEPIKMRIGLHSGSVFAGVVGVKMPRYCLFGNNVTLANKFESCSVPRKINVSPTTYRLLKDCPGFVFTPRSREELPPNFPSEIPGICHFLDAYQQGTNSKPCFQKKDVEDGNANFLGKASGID
Chain of human soluble guanylate cyclase alpha 1 and beta 1 subunits (sGC) (Q02153 whole entry): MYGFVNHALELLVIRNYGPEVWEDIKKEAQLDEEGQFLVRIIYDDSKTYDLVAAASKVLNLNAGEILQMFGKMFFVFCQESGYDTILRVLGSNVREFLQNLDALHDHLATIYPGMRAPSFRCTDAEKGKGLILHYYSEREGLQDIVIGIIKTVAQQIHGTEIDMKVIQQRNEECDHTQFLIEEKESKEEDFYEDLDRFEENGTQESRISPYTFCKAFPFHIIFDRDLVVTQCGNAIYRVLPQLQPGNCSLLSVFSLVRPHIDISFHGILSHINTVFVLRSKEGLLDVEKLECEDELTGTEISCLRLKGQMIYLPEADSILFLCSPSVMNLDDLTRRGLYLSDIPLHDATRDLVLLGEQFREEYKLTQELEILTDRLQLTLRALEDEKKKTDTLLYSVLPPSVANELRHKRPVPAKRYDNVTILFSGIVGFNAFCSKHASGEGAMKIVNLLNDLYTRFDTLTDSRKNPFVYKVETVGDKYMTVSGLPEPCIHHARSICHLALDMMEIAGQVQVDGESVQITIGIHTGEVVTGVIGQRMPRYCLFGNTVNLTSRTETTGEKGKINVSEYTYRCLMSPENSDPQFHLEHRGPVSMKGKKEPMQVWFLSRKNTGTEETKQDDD

Structure (SMILES) | EC50 [1] | Metabolic stability (Qh %), % hepatic blood flow [2] | solubility at 24 h (physchem; [3]) | solubility at 24 h (physchem; [4]) | solubility at 24 h (physchem; [5])
CO[C@@H]1CN(c2cccc(-c3cc(C)ccc3OCc3cc(C)c4c(c3)CCN(C3CCOCC3)C4)n2)CC[C@@H]1C(=O)O [Compound 76] | 25 nM | <24% | 130 µg/mL (≈ 222 µM) | 110 µg/mL (≈ 188 µM) | 80 µg/mL (≈ 137 µM)
CO[C@@H]1CN(c2cccc(-c3cc(C)ccc3OCc3cc(C)c4c(c3)CCN(C3CCOC3)C4)n2)CC[C@@H]1C(=O)O (stereo partly drawn) [Compound 77] | 71 nM | <24% | 110 µg/mL (≈ 192 µM) | 95 µg/mL (≈ 166 µM) | 64 µg/mL (≈ 112 µM)
CCc1cc(COc2ccc(C)cc2-c2cccc(N3CC[C@H](C(=O)O)[C@H](OC)C3)n2)cc2c1CN(C1CCOCC1)CC2 [Compound 79] | 25 nM | <24% | 140 µg/mL (≈ 233 µM) | 120 µg/mL (≈ 200 µM) | 91 µg/mL (≈ 152 µM)
COc1cc(COc2ccc(C)cc2-c2cccc(N3CC[C@H](C(=O)O)[C@H](OC)C3)n2)cc2c1CN(C1CCOCC1)CC2 [Compound 80] | 23 nM | <24% | 150 µg/mL (≈ 249 µM) | 130 µg/mL (≈ 216 µM) | 92 µg/mL (≈ 153 µM)
CO[C@@H]1CN(c2cccc(-c3cc(C)ccc3OCc3ccc4c(c3C)CCN(C3CCOCC3)CC4)n2)CC[C@@H]1C(=O)O [Compound 81] | 30 nM | 30% | > 160 µg/mL | > 160 µg/mL | 91 µg/mL (≈ 152 µM)
O=C(O)[C@@]12CCN(c3nc(-c4ccccc4OCc4ccc5c(c4)CCN(C4CCOCC4)C5)cs3)C[C@@H]1C2 [Compound 82] | 10 nM | <24% | 100 µg/mL (≈ 183 µM) | 40 µg/mL (≈ 73.3 µM) | 22 µg/mL (≈ 40.3 µM)
Cc1c(COc2ccccc2-c2csc(N3CC[C@@]4(C(=O)O)C[C@H]4C3)n2)ccc2c1CCN(C1CCOCC1)C2 [Compound 83] | 4 nM | <24% | 120 µg/mL (≈ 214 µM) | 47 µg/mL (≈ 84 µM) | 13 µg/mL (≈ 23.2 µM)
Cc1cccc(-c2csc(N3CC[C@@]4(C(=O)O)C[C@H]4C3)n2)c1OCc1ccc2c(c1)CCN(C1CCOCC1)C2 [Compound 84] | 27 nM | <24% | 120 µg/mL (≈ 214 µM) | 70 µg/mL (≈ 125 µM) | 53 µg/mL (≈ 94.7 µM)
Cc1cccc(-c2csc(N3CC[C@@]4(C(=O)O)C[C@H]4C3)n2)c1OCc1ccc2c(c1)CCN(C1COC1)C2 [Compound 85] | 28 nM | 29% | 120 µg/mL (≈ 226 µM) | 52 µg/mL (≈ 97.8 µM) | 55 µg/mL (≈ 103 µM)
Cc1cccc(-c2csc(N3CC[C@@]4(C(=O)O)C[C@H]4C3)n2)c1OCc1ccc2c(c1C)CCN(CC1COCCO1)C2 (stereo partly drawn) [Compound 86] | 2 nM | 41% | 120 µg/mL (≈ 203 µM) | 71 µg/mL (≈ 120 µM) | 57 µg/mL (≈ 96.6 µM)
Cc1cccc(-c2csc(N3CC[C@@]4(C(=O)O)C[C@H]4C3)n2)c1OCc1ccc2c(c1C)CCN(C1CCCOC1)C2 (stereo partly drawn) [Compound 87] | 2 nM | 55% | 120 µg/mL (≈ 209 µM) | 67 µg/mL (≈ 117 µM) | 28 µg/mL (≈ 48.8 µM)
Cc1cccc(-c2csc(N3CC[C@@]4(C(=O)O)C[C@H]4C3)n2)c1OCc1ccc2c(c1C)CCN(C1CCOC1)C2 (stereo partly drawn) [Compound 88] | 4 nM | 43% | 120 µg/mL (≈ 214 µM) | 69 µg/mL (≈ 123 µM) | 48 µg/mL (≈ 85.8 µM)
Cc1cc(COc2c(C)cccc2-c2csc(N3CC[C@@]4(C(=O)O)C[C@H]4C3)n2)cc2c1CN(CC1COCCO1)CC2 (stereo partly drawn) [Compound 91] | 3 nM | <24% | 120 µg/mL (≈ 203 µM) | 68 µg/mL (≈ 115 µM) | 41 µg/mL (≈ 69.5 µM)
Cc1cc(COc2c(C)cccc2-c2csc(N3CC[C@@]4(C(=O)O)C[C@H]4C3)n2)cc2c1CN(C1CCCOC1)CC2 (stereo partly drawn) [Compound 94] | 3 nM | 42% | 120 µg/mL (≈ 209 µM) | 55 µg/mL (≈ 95.9 µM) | 19 µg/mL (≈ 33.1 µM)
Cc1cc(COc2c(C)cccc2-c2csc(N3CC[C@@]4(C(=O)O)C[C@H]4C3)n2)cc2c1CN(C1CCOC1)CC2 (stereo partly drawn) [Compound 95] | 2 nM | 49% | 120 µg/mL (≈ 214 µM) | 66 µg/mL (≈ 118 µM) | 31 µg/mL (≈ 55.4 µM)
Cc1cc(COc2c(C)cccc2-c2csc(N3CC[C@@]4(C(=O)O)C[C@H]4C3)n2)cc2c1CN(C1CCOCC1)CC2 [Compound 96] | 2 nM | 33% | 120 µg/mL (≈ 209 µM) | 68 µg/mL (≈ 119 µM) | 52 µg/mL (≈ 90.6 µM)
Cc1cc(COc2c(C)cccc2-c2csc(N3CC[C@@]4(C(=O)O)C[C@H]4C3)n2)c(C)c2c1CN(CC1COCCO1)CC2 (stereo partly drawn) [Compound 98] | 1 nM | 48% | 120 µg/mL (≈ 199 µM) | 75 µg/mL (≈ 124 µM) | 31 µg/mL (≈ 51.3 µM)
Cc1cc(COc2c(C)cccc2-c2csc(N3CC[C@@]4(C(=O)O)C[C@H]4C3)n2)c(C)c2c1CN(C1CCCOC1)CC2 (stereo partly drawn) [Compound 99] | 3 nM | 59% | 120 µg/mL (≈ 204 µM) | 69 µg/mL (≈ 117 µM) | 14 µg/mL (≈ 23.8 µM)
Cc1cc(COc2c(C)cccc2-c2csc(N3CC[C@@]4(C(=O)O)C[C@H]4C3)n2)c(C)c2c1CN(C1CCOC1)CC2 (stereo partly drawn) [Compound 100] | 3 nM | 55% | 130 µg/mL (≈ 227 µM) | 68 µg/mL (≈ 119 µM) | 27 µg/mL (≈ 47.1 µM)
Cc1cc(COc2c(C)cccc2-c2csc(N3CC[C@@]4(C(=O)O)C[C@H]4C3)n2)c(C)c2c1CN(C1CCOCC1)CC2 [Compound 101] | 3 nM | 61% | 120 µg/mL (≈ 204 µM) | 79 µg/mL (≈ 134 µM) | 38 µg/mL (≈ 64.6 µM)
Cc1cc(COc2c(C)cccc2-c2csc(N3CC[C@@]4(C(=O)O)C[C@H]4C3)n2)c(C)c2c1CN(C1COC1)CC2 [Compound 102] | 3 nM | 52% | 130 µg/mL (≈ 232 µM) | 41 µg/mL (≈ 73.2 µM) | 54 µg/mL (≈ 96.5 µM)
Cc1cccc(-c2csc(N3CC[C@@]4(C(=O)O)C[C@H]4C3)n2)c1OCc1ccc2c(c1C)CCN(C1CCOC1)CC2 (stereo partly drawn) [Compound 106] | 5 nM | 39% | 130 µg/mL (≈ 227 µM) | 66 µg/mL (≈ 115 µM) | 44 µg/mL (≈ 76.7 µM)
Cc1ccc(OCc2ccc3c(c2)CCN(C2CCOCC2)C3)c(-c2csc(N3CC[C@@]4(C(=O)O)C[C@H]4C3)n2)c1 [Compound 110] | 17 nM | <24% | 110 µg/mL (≈ 197 µM) | 54 µg/mL (≈ 96.5 µM) | 0.58 µg/mL (≈ 1.04 µM)
Cc1ccc(OCc2ccc3c(c2)CCN(CC2COCCO2)C3)c(-c2csc(N3CC[C@@]4(C(=O)O)C[C@H]4C3)n2)c1 (stereo partly drawn) [Compound 112] | 2 nM | <24% | 120 µg/mL (≈ 208 µM) | 55 µg/mL (≈ 95.5 µM) | 8.1 µg/mL (≈ 14.1 µM)
